Reference: publication PMC4570246 (Cancer letters, 2015)

Biological target: β-tubulin (Homo sapiens, UniProt P07437)
Assay: SPR
Format: binding

Sequence of β-tubulin (P07437 whole entry): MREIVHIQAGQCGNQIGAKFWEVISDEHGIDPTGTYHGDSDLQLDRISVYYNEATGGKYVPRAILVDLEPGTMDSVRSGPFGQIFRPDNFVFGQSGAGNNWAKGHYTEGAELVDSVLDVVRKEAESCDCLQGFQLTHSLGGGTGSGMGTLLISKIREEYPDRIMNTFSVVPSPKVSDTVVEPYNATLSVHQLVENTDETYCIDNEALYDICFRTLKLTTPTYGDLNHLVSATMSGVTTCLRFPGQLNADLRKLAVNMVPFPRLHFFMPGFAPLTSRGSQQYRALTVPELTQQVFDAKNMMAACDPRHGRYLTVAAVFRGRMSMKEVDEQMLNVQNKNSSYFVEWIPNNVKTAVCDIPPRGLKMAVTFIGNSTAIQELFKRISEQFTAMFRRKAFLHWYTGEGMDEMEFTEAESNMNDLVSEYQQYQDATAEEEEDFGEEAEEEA

| Kd [nM] | Compound |
| --- | --- |
| 1590 | O=c1c(O)c(-c2ccc(O)c(O)c2)oc2cc(O)ccc12 [fisetin] |
| 2260 | CC(=O)O[C@H]1C(=O)[C@@]2(C)[C@H]([C@H](OC(=O)c3ccccc3)[C@]3(O)C[C@H](OC(=O)[C@H](O)[C@@H](NC(=O)c4ccccc4)c4ccccc4)C(C)=C1C3(C)C)[C@]1(OC(C)=O)CO[C@@H]1C[C@@H]2O [paclitaxel] |
